What was measured:
[1] = target: [35S]-TBPS binding, rat brain cortical membranes; experiment: Steroid inhibition of [35S]-TBPS binding; conditions: 3 nM [35S]-TBPS, in the presence of 5 μM GABA
Description: Steroid Inhibition of TBPS Binding
[35S]-t-Butylbicylophorothionate (TBPS) binding assays using rat brain cortical membranes in the presence of 5 μM GABA has been described (Gee et al, J. Pharmacol. Exp. Ther. 1987, 241, 346-353; Hawkinson et al, Mol. Pharmacol. 1994, 46, 977-985; Lewin, A. H et al., Mol. Pharmacol. 1989, 35, 189-194).
Briefly, cortices are rapidly removed following decapitation of carbon dioxide-anesthetized Sprague-Dawley rats (200-250 g). The cortices are homogenized in 10 volumes of ice-cold 0.32 M sucrose using a glass/teflon homogenizer and centrifuged at 1500×g for 10 min at 4° C. The resultant supernatants are centrifuged at 10,000×g for 20 min at 4° C. to obtain the P2 pellets. The P2 pellets are resuspended in 200 mM NaCl/50 mM Na—K phosphate pH 7.4 buffer and centrifuged at 10,000×g for 10 min at 4° C. This washing procedure is repeated twice and the pellets are resuspended in 10 volumes of buffer. Aliquots (100 μL) of the membrane suspensions are incubated with 3 nM [^35S]-TBPS and 5 μL aliquots of test drug dissolved in dimethyl sulfoxide (DMSO) (final 0.5%) in the presence of 5 μM GABA. The incubation is brought to a final volume of 1.0 mL with buffer. Nonspecific binding is determined in the presence of 2 μM unlabeled TBPS and ranged from 15 to 25%. Following a 90 min incubation at room temp, the assays are terminated by filtration through glass fiber filters (Schleicher and Schuell No. 32) using a cell harvester (Brandel) and rinsed three times with ice-cold buffer. Filter bound radioactivity is measured by liquid scintillation spectrometry. Non-linear curve fitting of the overall data for each drug averaged for each concentration is done using Prism (GraphPad).
Various compounds are or can be screened to determine their potential as modulators of [^355]-TBPS binding in vitro. These assays are or can be performed in accordance with the above discussed procedures.

α1β2γ2 GABAA receptor = α1β2γ2 GABAA receptor (Homo sapiens (Human), UniProt P14867+P47870); conditions: for Emax at 10 µM / Emax: LTK; for Emax at 10 µM: read-out: GABA (α1β2γ2) Qpatch in Ltk, % efficacy at 10 μM, Qpatch, Ltk cells, 10 μM compound, 2 μM GABA; for Emax: read-out: GABAa alpha1 (α1β2γ2) Emax (%), potentiation of GABA EC20 (2 μM) current; for GABA (α1β2γ2) Qpatch in Ltk, % efficacy at 10 μM: Ltk cells, 10 μM compound, 2 μM GABA
Description: LTK cells are stably transfected with the α1β2γ2 subunits of the GABA receptor and CHO cells are transiently transfected with the α4β3δ subunits via the Lipofecatamine method. Cells were passaged at a confluence of about 50-80% and then seeded onto 35 mm sterile culture dishes containing 2 ml culture complete medium without antibiotics or antimycotics.
Whole cell currents were measured with HEKA EPC-10 amplifiers using PatchMaster software or by using the high throughput QPatch platform (Sophion). […] In some cases 0.005% cremophor was also added. Intracellular (pipette) solution contained: KCl 130 mM, MgCl2 1 mM, Mg-ATP 5 mM, HEPES 10 mM, EGTA 5 mM, pH 7.2. During experiments, cells and solutions were maintained at room temperature (19° C.-30° C.). For manual patch clamp recordings, cell culture dishes were placed on the dish holder of the microscope and continuously perfused (1 ml/min) with bath solution. After formation of a Gigaohm seal between the patch electrodes and the cell (pipette resistance range: 2.5 MΩ-6.0 MΩ; seal resistance range: >1 GΩ) the cell membrane across the pipette tip was ruptured to assure electrical access to the cell interior (whole-cell patch-configuration). For experiments using the QPatch system, cells were transferred as suspension to the QPatch system in the bath solution and automated whole cell recordings were performed.
Cells were voltage clamped at a holding potential of −80 mV. For the analysis of test articles, GABA receptors were stimulated by 2 μM GABA after sequential pre-incubation of increasing concentrations of the test article. Pre-incubation duration was 30 s and the duration of the GABA stimulus was 2 s. Test articles were dissolved in DMSO to form stock solutions (10 mM). Test articles were diluted to 0.01, 0.1, 1, and 10 μM in bath solution. All concentrations of test articles were tested on each cell. The relative percentage potentiation was defined as the peak amplitude in response to GABA EC20 in the presence of the test article divided by the peak amplitude in response to GABA EC20 alone, multiplied by 100.

| Structure (SMILES) | IC50 [1] [nM] | also measured |
| --- | --- | --- |
| C[C@@]1(O)CC[C@H]2[C@@H](CC[C@@H]3[C@@H]2CC[C@]2(C)[C@@H](C(=O)CN4CCNCC4)CC[C@@H]32)C1 [Entry 24] | ≥ 500 |  |
| C[C@@H]1C[C@H]2[C@@H](CC[C@@H]3[C@@H]2CC[C@]2(C)[C@@H](C(=O)CN4CCOCC4)CC[C@@H]32)C[C@]1(C)O [Entry 39] | 100 to 500 |  |
| C[C@@]1(O)CC[C@H]2[C@H](CC[C@@H]3[C@@H]2CC[C@]2(C)[C@@H](C(=O)CN4CC(O)C4)CC[C@@H]32)C1 [Entry 5] | ≥ 500 |  |
| CC(=O)N1CCN(CC(=O)[C@H]2CC[C@H]3[C@@H]4CC[C@H]5C[C@](C)(O)[C@H](C)C[C@@H]5[C@H]4CC[C@]23C)CC1 [Entry 20] | 100 to 500 |  |
| C[C@H]1C[C@H]2[C@@H](CC[C@@H]3[C@@H]2CC[C@]2(C)[C@@H](C(=O)CN4CCOCC4)CC[C@@H]32)C[C@]1(C)O [Entry 18] | 100 to 500 |  |
| CO[C@H]1C[C@H]2[C@@H](CC[C@@H]3[C@@H]2CC[C@]2(C)[C@@H](C(=O)CN4CCOCC4)CC[C@@H]32)C[C@]1(C)O [Entry 41] | ≥ 500 |  |
| COC[C@@]1(O)CC[C@H]2[C@H](CC[C@@H]3[C@@H]2CC[C@]2(C)[C@@H](C(=O)CN4CCOCC4)CC[C@@H]32)C1 [Entry 43] | ≥ 500 |  |
| C[C@]12CC[C@H]3[C@@H](CC[C@@H]4C[C@@](O)(C(F)F)CC[C@@H]43)[C@@H]1CC[C@@H]2C(=O)CN1CCN(S(C)(=O)=O)CC1 [Entry 56] |  | Emax at 10 µM (α1β2γ2 GABAA receptor): 100 to 500% |
| CC(=O)N1CCN(CC(=O)[C@H]2CC[C@H]3[C@@H]4CC[C@H]5C[C@](C)(O)CC[C@@H]5[C@H]4CC[C@]23C)CC1 [Entry 10] |  | Emax at 10 µM (α1β2γ2 GABAA receptor): 100 to 500% |
| C[C@@]1(O)CC[C@@H]2[C@H]3CC[C@]4(C)[C@@H](C(=O)CN5CCOCC5)CC[C@H]4[C@@H]3C[C@@H](F)[C@H]2C1 [Entry 38] | ≥ 500 |  |
| C[C@]12CC[C@H]3[C@@H](CC[C@@H]4C[C@@](O)(CF)CC[C@@H]43)[C@@H]1CC[C@@H]2C(=O)CN1CCOCC1 [Entry 55] |  | Emax at 10 µM (α1β2γ2 GABAA receptor): 10 to 100% |
| C[C@@]1(O)CC[C@@H]2[C@H]3CC[C@]4(C)[C@@H](C(=O)CN5CCOCC5)CC[C@H]4[C@@H]3C[C@@H](F)[C@@H]2C1 [Entry 44] | ≥ 500 |  |
| COC[C@@]1(O)CC[C@H]2[C@H](CC[C@@H]3[C@@H]2CC[C@]2(C)[C@@H](C(=O)CN4CCN(S(C)(=O)=O)CC4)CC[C@@H]32)C1 [Entry 22] | 100 to 500 |  |
| CC(=O)N1CCN(CC(=O)[C@H]2CC[C@H]3[C@@H]4CC[C@H]5C[C@](C)(O)CC[C@@H]5[C@H]4CC[C@]23C)CC1 [Entry 13] | 100 to 500 |  |
| C[C@]12CC[C@H]3[C@@H](CC[C@@H]4C[C@@](O)(CF)CC[C@@H]43)[C@@H]1CC[C@@H]2C(=O)CN1CCOCC1 [Entry 46] | ≥ 500 |  |
| CC[C@@]1(O)CC[C@H]2[C@@H](CC[C@@H]3[C@@H]2CC[C@]2(C)[C@@H](C(=O)CN4CCN(S(C)(=O)=O)CC4)CC[C@@H]32)C1 [Entry 33] | 100 to 500 |  |
| CC(=O)N1CCN(CC(=O)[C@H]2CC[C@H]3[C@@H]4CC[C@H]5C[C@](C)(O)[C@H](C)C[C@@H]5[C@H]4CC[C@]23C)CC1 [Entry 26] |  | Emax at 10 µM (α1β2γ2 GABAA receptor): 100 to 500% |
| C[C@@H]1COCCN1CC(=O)[C@H]1CC[C@H]2[C@@H]3CC[C@@H]4C[C@](C)(O)CC[C@@H]4[C@H]3CC[C@]12C [Entry 3] |  | EC50 (α1β2γ2 GABAA receptor): > 2000 nM; Emax (α1β2γ2 GABAA receptor): 0 to 500% |
| CC[C@@]1(O)CC[C@H]2[C@@H](CC[C@@H]3[C@@H]2CC[C@]2(C)[C@@H](C(=O)CN4CCOCC4)CC[C@@H]32)C1 [Entry 49] | ≥ 500 |  |
| C[C@@H]1COCCN1CC(=O)[C@H]1CC[C@H]2[C@@H]3CC[C@@H]4C[C@](C)(O)CC[C@@H]4[C@H]3CC[C@]12C [Entry 11] | 100 to 500 |  |
| CC[C@@]1(O)CC[C@H]2[C@H](CC[C@@H]3[C@@H]2CC[C@]2(C)[C@@H](C(=O)CN4CCN(S(C)(=O)=O)CC4)CC[C@@H]32)C1 [Entry 34] |  | Emax at 10 µM (α1β2γ2 GABAA receptor): 100 to 500% |

| Structure (SMILES) | IC50 [1] [nM] | also measured |
| --- | --- | --- |
| C[C@H]1CN(CC(=O)[C@H]2CC[C@H]3[C@@H]4CC[C@@H]5C[C@](C)(O)CC[C@@H]5[C@H]4CC[C@]23C)C[C@H](C)O1 [Entry 31] | 10 to 50 |  |
| C[C@]12CC[C@H]3[C@@H](CC[C@@H]4C[C@@](O)(CF)CC[C@@H]43)[C@@H]1CC[C@@H]2C(=O)CN1CCN(S(C)(=O)=O)CC1 [Entry 32] |  | Emax at 10 µM (α1β2γ2 GABAA receptor): > 500% |
| CC(=O)N1CCN(CC(=O)[C@H]2CC[C@H]3[C@@H]4CC[C@@H]5C[C@](C)(O)CC[C@@H]5[C@H]4CC[C@]23C)CC1 [Entry 17] |  | Emax at 10 µM (α1β2γ2 GABAA receptor): 100 to 500% |
| C[C@@]1(O)CC[C@H]2[C@@H](CC[C@@H]3[C@@H]2CC[C@]2(C)[C@@H](C(=O)CN4CCC(O)CC4)CC[C@@H]32)C1 [Entry 12] | ≥ 500 |  |
| C[C@@]1(O)CC[C@H]2[C@H](CC[C@@H]3[C@@H]2CC[C@]2(C)[C@@H](C(=O)CN4CCNCC4)CC[C@@H]32)C1 [Entry 51] | 100 to 500 |  |
| C[C@@H]1C[C@H]2[C@@H](CC[C@@H]3[C@@H]2CC[C@]2(C)[C@@H](C(=O)CN4CCN(S(C)(=O)=O)CC4)CC[C@@H]32)C[C@]1(C)O [Entry 25] | 50 to 100 |  |
| COC[C@@]1(O)CC[C@H]2[C@@H](CC[C@@H]3[C@@H]2CC[C@]2(C)[C@@H](C(=O)CN4CCOCC4)CC[C@@H]32)C1 [Entry 42] | ≥ 500 |  |
| C[C@]12CC[C@H]3[C@@H](CC[C@H]4C[C@@](O)(CF)CC[C@@H]43)[C@@H]1CC[C@@H]2C(=O)CN1CCOCC1 [Entry 48] | ≥ 500 |  |
| COC[C@@]1(O)CC[C@H]2[C@@H](CC[C@@H]3[C@@H]2CC[C@]2(C)[C@@H](C(=O)CN4CCN(S(C)(=O)=O)CC4)CC[C@@H]32)C1 [Entry 52] | 100 to 500 |  |
| C[C@@H]1CN(CC(=O)[C@H]2CC[C@H]3[C@@H]4CC[C@@H]5C[C@](C)(O)CC[C@@H]5[C@H]4CC[C@]23C)CCO1 [Entry 2] |  | EC50 (α1β2γ2 GABAA receptor): 1000 to 2000 nM; Emax (α1β2γ2 GABAA receptor): 0 to 500% |
| C[C@@]1(O)CC[C@H]2[C@H](CC[C@@H]3[C@@H]2CC[C@]2(C)[C@@H](C(=O)CN4CCCOCC4)CC[C@@H]32)C1 [Entry 53] | 100 to 500 |  |
| COC[C@@]1(O)CC[C@H]2[C@@H](CC[C@@H]3[C@@H]2CC[C@]2(C)[C@@H](C(=O)CN4CCN(S(C)(=O)=O)CC4)CC[C@@H]32)C1 [Entry 29] |  | GABA (α1β2γ2) Qpatch in Ltk, % efficacy at 10 μM (α1β2γ2 GABAA receptor): B (“B” ≥100-500) |
| C[C@@]1(O)CC[C@H]2[C@H](CC[C@@H]3[C@@H]2CC[C@]2(C)[C@@H](C(=O)CN4CCCOCC4)CC[C@@H]32)C1 [Entry 58] |  | Emax at 10 µM (α1β2γ2 GABAA receptor): > 500% |
| C[C@@H]1CN(CC(=O)[C@H]2CC[C@H]3[C@@H]4CC[C@@H]5C[C@](C)(O)CC[C@@H]5[C@H]4CC[C@]23C)CCO1 [Entry 6] |  | Emax at 10 µM (α1β2γ2 GABAA receptor): 100 to 500% |
| COC[C@@]1(O)CC[C@H]2[C@@H](CC[C@@H]3[C@@H]2CC[C@]2(C)[C@@H](C(=O)CN4CCN(S(C)(=O)=O)CC4)CC[C@@H]32)C1 [Entry 57] |  | GABA (α1β2γ2) Qpatch in Ltk, % efficacy at 10 μM (α1β2γ2 GABAA receptor): C (“C” ≥500) |
| C[C@]12CC[C@H]3[C@@H](CC[C@@H]4C[C@@](O)(C(F)F)CC[C@@H]43)[C@@H]1CC[C@@H]2C(=O)CN1CCOCC1 [Entry 40] | ≥ 500 |  |
| CC(=O)N1CCN(CC(=O)[C@H]2CC[C@H]3[C@@H]4CC[C@H]5C[C@](C)(O)[C@@H](C)C[C@@H]5[C@H]4CC[C@]23C)CC1 [Entry 21] | 100 to 500 |  |
| C[C@@]1(O)CC[C@H]2[C@H](CC[C@@H]3[C@@H]2CC[C@]2(C)[C@@H](C(=O)CN4CCNCC4)CC[C@@H]32)C1 [Entry 23] | ≥ 500 |  |
| C[C@@]1(O)CC[C@H]2[C@@H](CC[C@@H]3[C@@H]2CC[C@]2(C)[C@@H](C(=O)CN4CCCC(O)C4)CC[C@@H]32)C1 (stereo partly shown) [Entry 15] | ≥ 500 |  |
| C[C@@H]1CCCCN1CC(=O)[C@H]1CC[C@H]2[C@@H]3CC[C@@H]4C[C@](C)(O)CC[C@@H]4[C@H]3CC[C@]12C [Entry 37] | 100 to 500 |  |
